In brackets after ≈: the same amount, converted by molar mass.
Tests used:
[1] = system: C. albicans E81022 strain; assay: Anti-Candida activity (MIC measurement); assay type: cell-based; settings: E81022STRAIN, MIC by visual inspection, C. albicans E81022, 48 hours at 30 to 35° C.
Method: (§1) For the C. albicans E81022 strain, a fungal suspension from a standing culture for 48 hours at 30° C. in a Sabouraud dextrose liquid culture medium (SDB) was diluted 10,000-fold with a 1.3-fold concentrated SDB to adjust to a fungal suspension of 1 to 2×10^4 cells/ml. For the A. fumigatus Tsukuba strain, −80° C. stored strain was diluted 1,000-fold with a 1.3-fold concentrated SDB to adjust to a fungal suspension of 2 to 3×10^3 cells/ml.
(§2) Using a U-bottomed 96 well plate, 8 samples/plate (A to H) of sample dilution solutions were prepared. On the 3rd row of each plate was dispensed 240 μl of sterilized and distilled water, and on the 2nd and 4th to 12th rows were dispensed 125 μl of 4% dimethylsulfoxide solution. Weighed sample was dissolved in dimethylsulfoxide to prepare a 2.5 to 20 mg/ml solution, 10 μl of this solution was then added to the 3rd row of the prepared plate, and 10 steps of two-fold step dilutions (125 μl of solution+125 μl of 4% dimethylsulfoxide) were performed on the plate.
(§3) The fungal suspension preprared in (1) was used in the amount of 75 μl/well to inoculate a V-bottomed or flat-bottomed 96 well plate containing 25 μl/well of test compound dilution solution prepared in (2), and a standing culture was carried out aerobically for 48 hours at 30 to 35° C.

[2] = system: A. fumigatus Tsukuba strain; assay: Anti-Aspergillus activity (MIC measurement); assay type: cell-based; settings: MIC by visual inspection, 48 hours at 30 to 35° C.
Method: as §1, §2, §3

MIC [1] [µg/mL]	MIC [2] [µg/mL]	Compound
0.78 (≈ 2.28 µM)	3.13 (≈ 9.14 µM)	O=C(NCc1cccc(C=C2CCCC2)c1)c1ccc2ncccc2c1 [Example E-51, 6-Quinolinecarboxylic acid 3-cyclopentylydenemethylbenzylamide]
1.56 (≈ 4.04 µM)	3.13 (≈ 8.1 µM)	O=C(NCc1ccc(OCc2ccccc2)cc1F)c1ccc2ncccc2c1 [Example E-53, Quinoline-6-carboxylic acid 4-benzyloxy-2-fluoro-benzalamide]
0.2 (≈ 0.586 µM)	6.25 (≈ 18.3 µM)	O=C(NCc1ccn(Cc2ccccc2)c1)c1ccc2ncccc2c1 [Example E-57, Quinoline-6-carboxylic acid (1-benzyl-1H-pyrrol-3-ylmethyl)-amide]
0.2 (≈ 0.519 µM)	6.25 (≈ 16.2 µM)	N#Cc1cccc(Oc2ccc(CNC(=O)c3ccc4ncccc4c3)s2)c1 [Example E-64, Quinoline-6-carboxylic acid (5-(3-cyano-phenoxy)-thiophen-2-ylmethyl)-amide]
0.39 (≈ 1.03 µM)	0.78 (≈ 2.06 µM)	O=C(NCc1ccc(Oc2ccc(F)cc2)s1)c1ccc2ncccc2c1 [Example E-67, Quinoline-6-carboxylic acid (5-(4-fluorophenoxy)thiophen-2-yl)methyl amide]
0.1 (≈ 0.264 µM)	1.56 (≈ 4.12 µM)	O=C(NCc1cc(Oc2cccc(F)c2)cs1)c1ccc2ncccc2c1 [Example E-69, Quinoline-6-carboxylic acid (4-(3-fluoro-phenoxy)-thiophen-2-ylmethyl)-amide]
0.2 (≈ 0.509 µM)	1.56 (≈ 3.97 µM)	O=C(NCc1ccc(Cc2cccc(Cl)c2)s1)c1ccc2ncccc2c1 [Example E-71, Quinoline-6-carboxylic acid (5-(3-chlorobenzyl)-thiophen-2-ylmethyl)-amide]
0.2 (≈ 0.528 µM)	0.78 (≈ 2.06 µM)	Cc1ccc(Cc2ccc(CNC(=O)c3ccc4ncccc4c3)s2)s1 [Example E-73, Quinoline-6-carboxylic acid (5-(5-methyl-thiophen-2-ylmethyl)-thiophen-2-ylmethyl)-amide]
0.78 (≈ 2.19 µM)	1.56 (≈ 4.39 µM)	O=C(NCc1cccc(Oc2ccccc2)c1)c1ccc2nccnc2c1 [Example I-1, Quinoxaline-6-carboxylic acid 3-phenoxybenzylamide]
0.78 (≈ 2.18 µM)	1.56 (≈ 4.35 µM)	Cc1nc2ccc(C(=O)NCc3cccc(Oc4ccccc4)c3)cc2o1 [Example K-1, 2-Methyl-benzoxazole-6-carboxylic acid 3-phenoxybenzylamide]
0.2 (≈ 0.51 µM)	0.2 (≈ 0.51 µM)	O=C(NCc1ccc(OCc2cccc(F)c2)cc1)c1ccc2ncsc2c1 [Example L-4, Benzothiazole-6-carboxylic acid 4-(3-fluoro-benzyloxy)-benzylamide]
0.1 (≈ 0.273 µM)	0.78 (≈ 2.13 µM)	O=C(NCc1ccc(Oc2ccccc2)s1)c1ccc2ncsc2c1 [Example L-7, Benzothiazole-6-carboxylic acid (5-phenoxythiophen-2-ylmethyl)-amide]
1.56 (≈ 4.32 µM)	1.56 (≈ 4.32 µM)	O=C(NCc1cccc(Oc2ccccc2)c1)c1ccc2nsnc2c1 [Example M-1, Benzo[1,2 5]thiadiazole-5-carboxylic acid 3-phenoxybenzylamide]
0.39 (≈ 1.12 µM)	6.25 (≈ 17.9 µM)	O=C(NCc1ccc(Oc2ccccc2)s1)c1ccc2nccn2c1 [Example Q-7, Imidazo[1,2-a]pyridine-6-carboxylic acid (5-phenoxy-thiophen-2-ylmethyl)-amide]
0.78 (≈ 2.13 µM)	3.13 (≈ 8.54 µM)	O=C(NCc1ccc(Oc2ccccc2)s1)c1cnc2ccsc2c1 [Example U-2, Thieno[3,2-b]pyridine-6-carboxylic acid (5-phenoxy-thiophen-2-yl methyl)-amide]
0.39 (≈ 1.15 µM)	0.78 (≈ 2.29 µM)	c1ccc(COc2ccc(NCc3ccc4ncccc4c3)cc2)cc1 [Example W-1, (4-Benzyloxy-phenyl)-quinolin-6-ylmethyl-amine]
1.56 (≈ 4.58 µM)	0.78 (≈ 2.29 µM)	c1ccc(COc2ccc(CNc3ccc4ncccc4c3)cc2)cc1 [Example W-2, (4-Benzyloxy-benzyl)-quinolin-6-yl-amine]

— patent US7932272B2, “Antifungal agent containing heterocyclic compound” (Eisai R&D Management Co., Ltd., priority 2003, dated 2011)
